Measurements as given in PMC6556870 (European Journal of Pharmaceutical Sciences, 2019).

Legend:
[1] = in vivo; conditions: rat, iv
Description: (§1) Fifteen male Han Wistar rats were obtained from Charles River Laboratories, Margate, UK. Animals were all in the target weight range of 163 to 215 g at dosing. Diet was removed at the end of the working day prior to each dose occasion, and returned 4 h after dosing.
(§2) Each animal received a single administration (Table 2). PO doses were administered by gavage at a nominal dose volume of 5 ml/kg. IV doses were administered via a lateral tail vein, at a nominal dose volume of 2 ml/kg, as a bolus injection. Body weights were recorded the day after arrival and before dose administration and used for calculation of doses. Samples of blood (nominally 150 μl) were collected from the jugular vein of each animal. For PO dosing this was done at 0.25, 0.5, 1, 2, 4, 6, 8 and 24 h post dose. For IV dosing this was at 0.016, 0.083, 0.5, 1, 2, 4, 8 and 24 h post dose. The actual blood collection time was used in the subsequent PK data analysis. Blood was collected into tubes containing the K2EDTA anticoagulant and stored at room temperature. Blood was centrifuged (1500g, 10 min, 4 °C) to produce plasma for analysis and residual blood cells were discarded.
Transfer of a 10 μl aliquot into a clean 2 ml […] collection plate • 2. Addition of 25 μl I-B (500 ng/ml). Addition of 25 μl methanol to all blanks • 3. Vortex mix plate (ca. 1 min) • 4. Addition of 80 μl methanol to all wells • 5. Vortex mix plate (ca. 2 min) • 6. Centrifuge 2000g plate for 10 min at room temperature • 7. Transfer 40 μl of supernatant to a clean 1.2 ml 96-well collection plate • 8. Dilute with 160 μl 10 mM of ammonium acetate:ammonium hydroxide (100:0.5 v/v) solution • 9. Vortex mix plate (ca. 2 min) • 10. Complete analysis by LC/MS-MS.

[2] = system: Male Han Wistar rats; test: Clinical signs / tolerability after single IV or PO administration
Description: as §1, §2
The following results were calculated for each group.

[3] = system: humans; set-up: method as in Knip et al., 2000; conditions: human adults, orally; ref Knip et al., 2000; cited from earlier work
[4] = system: rats; conditions: rat, in vivo, cited from earlier work

## NC(=O)c1cccnc1 [NA, Nicotinamide, reference compound]
[1]; male, Han Wistar
  time by which agent is completely cleared / plasma level returns to baseline: ≤ 24 h
[1]; male, Han Wistar, 120 mg/kg
  AUC(0-inf): 774 µg·h/mL
  AUC(0-t): 573 µg·h/mL
  C0: 178 µg/mL
  Cmax: 168 µg/mL
  Vd: 0.911 L/kg
  clearance: 2.72 mL/min/kg
[1]; male, Han Wistar, 120 mg/kg, t½
  half-life: 4 h
[2]; IV or PO, doses up to 120 mg/kg, fifteen male rats
  clinical signs associated with administration: No clinical signs
[3]
  adult dose at which NA is a safe therapy: up to 10 g/day
[4]; ip
  safe dose in rats, IP injection: 1000 mg/kg
[4]; sc
  safe dose in rats, subcutaneous injection: 750 mg/kg

## [2H]c1cc([2H])c(C(N)=O)cn1 [d2-NA, 4,6-d2-Nicotinamide]
[1]
  time by which agent is completely cleared / plasma level returns to baseline: ≤ 24 h
[1]; 20 mg/kg
  C0: 28,700 ng/ml
  Cl: 9.77 mL/min/kg
  Vz: 0.691 L/kg
[1]; 60 mg/kg
  AUC(0–t): 196,000 h·ng/ml
  AUC(0–∞): 197,000 h·ng/ml
  C0: 82,700 ng/ml
  Cl: 5.12 mL/min/kg
  Cmax: 79,400 ng/ml
  Vz: 0.963 L/kg
  t½: 2.23 h
[1]; 120 mg/kg
  C0: 172,000 ng/ml
  Cl: 4.37 mL/min/kg
  Vz: 0.877 L/kg
[2]; regardless of route of administration (IV, PO), 20, 80 and 120 mg/kg, rat
  tolerability: well tolerated
